Publication PMC8889123 (International journal for parasitology, 2019)

Target: T1, Ser/Thr protein phosphatase 5 (PbPP5) (Plasmodium berghei, UniProt A0A509AMH5)
T1 sequence (A0A509AMH5 407-711): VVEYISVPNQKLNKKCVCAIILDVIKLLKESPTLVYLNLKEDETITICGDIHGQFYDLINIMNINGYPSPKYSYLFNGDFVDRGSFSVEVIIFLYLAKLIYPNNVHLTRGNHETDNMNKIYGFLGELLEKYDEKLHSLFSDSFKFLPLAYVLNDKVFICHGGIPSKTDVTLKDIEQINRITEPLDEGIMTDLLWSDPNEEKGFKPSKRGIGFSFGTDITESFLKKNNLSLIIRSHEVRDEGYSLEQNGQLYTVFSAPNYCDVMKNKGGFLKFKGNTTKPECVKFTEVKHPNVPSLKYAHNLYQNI
Assay type: biochemical

SMILES	IC50 [nM]
C=C1[C@@H](O)[C@@H]2O[C@]3(CC[C@H](/C=C/[C@@H](C)[C@@H]4CC(C)=C[C@@]5(O[C@H](C[C@@](C)(O)C(=O)O)CC[C@H]5O)O4)O3)CC[C@H]2O[C@@H]1[C@@H](O)C[C@H](C)[C@H]1O[C@@]2(CCCCO2)CC[C@H]1C [okadaic acid]	1.3
C[C@]1(C(=O)O)[C@@H]2CC[C@@H](O2)[C@@]1(C)C(=O)O [cantharidic acid]	122
O=C(O)[C@@H]1[C@H](C(=O)O)[C@H]2CC[C@@H]1O2 [endothall]	365
C[C@@]12C(=O)OC(=O)[C@]1(C)[C@H]1CC[C@@H]2O1 [cantharidin]	74.3
